Measurements taken from US11279687B2, “Compounds and compositions for the inhibition of NAMPT” (Valo Health, Inc., priority 2010, dated 2022).
Read-outs that look alike come from different tables or passages of the source.

How the values were obtained:
NAMPT = NAMPT (Homo sapiens (Human), UniProt P43490); test: NAMPT biochemical inhibition assay (NMN quantified by mass spectrometry); conditions: NAMPT biochemical inhibition; read-out: Biochem IC50
A2780 cells = test: In-vitro cell proliferation assay (SRB), A2780 cells; format: cell-based; conditions: A2780 cells, 72 hours, SRB, read-out: A2780 IC50;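 further: viable cell number read as SRB absorbance, background from media-only wells subtracted, IC50 interpolated from percent inhibition at two bracketing compound concentrations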

Sequence of NAMPT (P43490 whole entry): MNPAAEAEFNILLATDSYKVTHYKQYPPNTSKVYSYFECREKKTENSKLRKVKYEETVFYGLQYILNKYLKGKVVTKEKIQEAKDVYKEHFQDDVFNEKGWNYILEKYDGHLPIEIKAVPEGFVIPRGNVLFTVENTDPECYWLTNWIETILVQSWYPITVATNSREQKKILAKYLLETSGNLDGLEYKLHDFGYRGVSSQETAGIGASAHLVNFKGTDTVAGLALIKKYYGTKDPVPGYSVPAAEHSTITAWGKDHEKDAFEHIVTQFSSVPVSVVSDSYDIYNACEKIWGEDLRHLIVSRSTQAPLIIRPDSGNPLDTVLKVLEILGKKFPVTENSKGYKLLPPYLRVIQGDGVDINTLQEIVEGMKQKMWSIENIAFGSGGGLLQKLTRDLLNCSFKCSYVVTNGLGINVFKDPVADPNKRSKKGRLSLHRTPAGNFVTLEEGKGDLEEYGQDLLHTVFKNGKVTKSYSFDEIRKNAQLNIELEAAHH

| IC50 (NAMPT) | IC50 (A2780 cells; Homo sapiens, A2780, 72 h) | SMILES | IC50 (A2780 cells) |
| --- | --- | --- | --- |
| 1.3 nM | 7.6 nM | O=C(NCc1cccnc1)Nc1ccc(S(=O)(=O)c2ccc(C(=O)N3CCCC3)cc2)cc1 [3-(pyridin-3-ylmethyl)-1-[4-({4-[(pyrrolidin-1-yl)carbonyl]benzene}sulfonyl)phenyl]urea] |  |
| 9 nM | 137 nM | O=C(NCc1cccnc1)Nc1ccc(S(=O)(=O)N2CCC[C@H](C(=O)N3CCCC3)C2)cc1 [3-(pyridin-3-ylmethyl)-1-{4-[(3S)-3-[(pyrrolidin-1-yl)carbonyl]piperidine-1-sulfonyl]phenyl}urea] |  |
| 23 nM | 1000 nM | O=C(NCc1cccnc1)Nc1ccc(S(=O)(=O)N2CCCCC2)cc1F [3-[2-fluoro-4-(piperidine-1-sulfonyl)phenyl]-1-(pyridin-3-ylmethyl)urea] |  |
| 2 nM | 31 nM | O=C(NCc1cccnc1)Nc1ccc(S(=O)(=O)N2CCc3ccccc32)cc1 [3-[4-(2,3-dihydro-1H-indole-1-sulfonyl)phenyl]-1-(pyridin-3-ylmethyl)urea] |  |
| 7.2 nM | 100 to 1000 nM | Cc1ncccc1S(=O)(=O)c1ccc(NC(=O)NCc2cccnc2)cc1 [3-[4-(2-methylpyridine-3-sulfonyl)phenyl]-1-(pyridin-3-ylmethyl)urea] |  |
| 59 nM | 7860 nM | O=C(NCc1cccnc1)Nc1ccc(S(=O)(=O)N2CC(F)(F)C2)cc1 [3-[4-(3,3-difluoroazetidine-1-sulfonyl)phenyl]-1-(pyridin-3-ylmethyl)urea] |  |
| 273 nM | > 30000 nM | O=C(NCc1cnccn1)Nc1ccc(S(=O)(=O)N2CCCCC2)cc1 [3-[4-(piperidine-1-sulfonyl)phenyl]-1-(pyrazin-2-ylmethyl)urea] |  |
| 1140 nM | > 30000 nM | O=C(NCc1cncnc1)Nc1ccc(S(=O)(=O)N2CCCCC2)cc1 [3-[4-(piperidine-1-sulfonyl)phenyl]-1-(pyrimidin-5-ylmethyl)urea] |  |
| 22100 nM | > 30000 nM | CC(NC(=O)Nc1ccc(S(=O)(=O)N2CCCCC2)cc1)c1cccnc1 (stereo not shown) [3-[4-(piperidine-1-sulfonyl)phenyl]-1-[1-(pyridin-3-yl)ethyl]urea] |  |
| 189 nM | > 30000 nM | O=C(NCc1ccc(C(F)(F)F)nc1)Nc1ccc(S(=O)(=O)N2CCCCC2)cc1 [3-[4-(piperidine-1-sulfonyl)phenyl]-1-{[6-(trifluoromethyl)pyridin-3-yl]methyl]urea] |  |
| 48 nM | 18000 nM | O=C(NCc1cncc(Cl)c1)Nc1ccc(S(=O)(=O)N2CCCCC2)cc1 [3-[(5-chloropyridin-3-yl)methyl]-1-[4-(piperidine-1-sulfonyl)phenyl]urea] |  |
| 8.5 nM | 71.4 nM | Nc1ccc(CNC(=O)Nc2ccc(S(=O)(=O)N3CCCCC3)cc2)cn1 [3-[(6-aminopyridin-3-yl)methyl]-1-[4-(piperidine-1-sulfonyl)phenyl]urea] |  |
| 8 nM | > 30000 nM | O=C(NCc1ccc(Cl)nc1)Nc1ccc(S(=O)(=O)N2CCCCC2)cc1 [3-[(6-chloropyridin-3-yl)methyl]-1-[4-(piperidine-1-sulfonyl)phenyl]urea] |  |

The remaining lines, values behind:

| SMILES | IC50 (NAMPT) | IC50 (A2780 cells; Homo sapiens, A2780, 72 h) | IC50 (A2780 cells) |
| --- | --- | --- | --- |
| O=C(NCc1cccnc1)Nc1ccc(S(=O)(=O)Nc2cccc3c2CCCC3)cc1 [3-(pyridin-3-ylmethyl)-1-{4-[(5,6,7,8-tetrahydronaphthalen-1-yl)sulfamoyl]phenyl}urea] | 0.3 nM | 45 nM |  |
| Cn1ncc2c(S(=O)(=O)c3ccc(NC(=O)NCc4cccnc4)cc3)cccc21 [3-[4-(1-methyl-1H-indazole-4-sulfonyl)phenyl]-1-(pyridin-3-ylmethyl)urea] | 1 nM | 59.9 nM |  |
| Cn1ncc2cc(S(=O)(=O)c3ccc(NC(=O)NCc4cccnc4)cc3)ccc21 [3-[4-(1-methyl-1H-indazole-5-sulfonyl)phenyl]-1-(pyridin-3-ylmethyl)urea] | 1.8 nM | 92.5 nM |  |
| Cn1ncc2ccc(S(=O)(=O)c3ccc(NC(=O)NCc4cccnc4)cc3)cc21 [3-[4-(1-methyl-1H-indazole-6-sulfonyl)phenyl]-1-(pyridin-3-ylmethyl)urea] | 2.5 nM | 35.4 nM |  |
| Cn1ncc2cccc(S(=O)(=O)c3ccc(NC(=O)NCc4cccnc4)cc3)c21 [3-[4-(1-methyl-1H-indazole-7-sulfonyl)phenyl]-1-(pyridin-3-ylmethyl)urea] | 14.4 nM | 100 to 1000 nM |  |
| Cn1c(S(=O)(=O)c2ccc(NC(=O)NCc3cccnc3)cc2)cc2ccccc21 [3-[4-(1-methyl-1H-indole-2-sulfonyl)phenyl]-1-(pyridin-3-ylmethyl)urea] | 3 nM | 63.5 nM |  |
| CCCn1cc(S(=O)(=O)c2ccc(NC(=O)NCc3cccnc3)cc2)cn1 [3-[4-(1-propyl-1H-pyrazole-4-sulfonyl)phenyl]-1-(pyridin-3-ylmethyl)urea] | 6.3 nM | 13.1 nM |  |
| COc1ncc(S(=O)(=O)c2ccc(NC(=O)NCc3cccnc3)cc2)c(OC)n1 [3-[4-(2,4-dimethoxypyrimidine-5-sulfonyl)phenyl]-1-(pyridin-3-ylmethyl)urea] | 6.7 nM | 21 nM |  |
| COc1ccc2ccccc2c1S(=O)(=O)c1ccc(NC(=O)NCc2cccnc2)cc1 [3-[4-(2-methoxynaphthalene-1-sulfonyl)phenyl]-1-(pyridin-3-ylmethyl)urea] | 2 nM | 12 nM |  |
| COc1ncc(S(=O)(=O)c2ccc(NC(=O)NCc3cccnc3)cc2)cn1 [3-[4-(2-methoxypyrimidine-5-sulfonyl)phenyl]-1-(pyridin-3-ylmethyl)urea] | 8.7 nM | 100 to 1000 nM |  |
| Cc1noc(C)c1S(=O)(=O)c1ccc(NC(=O)NCc2cccnc2)cc1 [3-[4-(3,5-dimethyl-1,2-oxazole-4-sulfonyl)phenyl]-1-(pyridin-3-ylmethyl)urea] | 20 nM | 850 nM |  |
| CC(C)c1ccc(CN2CCN(S(=O)(=O)c3ccc(NC(=O)NCc4cccnc4)cc3)CC2)cc1 [3-[4-(4-{[4-(propan-2-yl)phenyl]methyl[piperazine-1-sulfonyl)phenyl]-1-(pyridin-3-ylmethyl)urea] | 35.8 nM |  | 1000 to 10000 nM |
| O=C(NCc1cccnc1)Nc1ccc(S(=O)(=O)c2cncc(Cl)c2)cc1 [3-[4-(5-chloropyridine-3-sulfonyl)phenyl]-1-(pyridin-3-ylmethyl)urea] | 2.6 nM | 98.2 nM |  |
| O=C(NCc1cccnc1)Nc1ccc(S(=O)(=O)c2cncc(F)c2)cc1 [3-[4-(5-fluoropyridine-3-sulfonyl)phenyl]-1-(pyridin-3-ylmethyl)urea] | 8.7 nM | 100 to 1000 nM |  |
| Cc1ccc(S(=O)(=O)c2ccc(NC(=O)NCc3cccnc3)cc2)s1 [3-[4-(5-methylthiophene-2-sulfonyl)phenyl]-1-(pyridin-3-ylmethyl)urea] | 3 nM | 383 nM |  |
| COc1ccc2cc(S(=O)(=O)c3ccc(NC(=O)NCc4cccnc4)cc3)ccc2c1 [3-[4-(6-methoxynaphthalene-2-sulfonyl)phenyl]-1-(pyridin-3-ylmethyl)urea] | 1.6 nM | 100 to 1000 nM |  |
| COc1ccc(S(=O)(=O)c2ccc(NC(=O)NCc3cccnc3)cc2)cn1 [3-[4-(6-methoxypyridine-3-sulfonyl)phenyl]-1-(pyridin-3-ylmethyl)urea] | 5 nM | 100 to 1000 nM |  |
| Cc1ccc(S(=O)(=O)c2ccc(NC(=O)NCc3cccnc3)cc2)cn1 [3-[4-(6-methylpyridine-3-sulfonyl)phenyl]-1-(pyridin-3-ylmethyl)urea] | 4.9 nM | 100 to 1000 nM |  |
| O=C(Nc1ccc(S(=O)(=O)c2ccccc2)cc1)Nc1ccc2ncccc2c1 [3-[4-(benzenesulfonyl)phenyl]-1-(quinolin-6-yl)urea] | 90 nM | 15900 nM |  |
| O=C(NCc1ccc(-n2cccn2)nc1)Nc1ccc(S(=O)(=O)c2ccccc2)cc1 [3-[4-(benzenesulfonyl)phenyl]-1-{[6-(1H-pyrazol-1-yl)pyridin-3-yl]methyl}urea] | 3790 nM | > 10000 nM |  |
| COCCOc1ccc(CNC(=O)Nc2ccc(S(=O)(=O)c3ccccc3)cc2)cn1 [3-[4-(benzenesulfonyl)phenyl]-1-{[6-(2-methoxyethoxy)pyridin-3-yl]methyl}urea] | 2120 nM | > 10000 nM |  |
| C[C@H](O)COc1ccccc1NS(=O)(=O)c1ccc(NC(=O)NCc2cccnc2)cc1 [3-[4-({2-[(2S)-2-hydroxypropoxy]phenyl}sulfamoyl)phenyl]-1-(pyridin-3-ylmethyl)urea] | 12 nM | 88 nM |  |
| C[C@H](O)c1cccc(NS(=O)(=O)c2ccc(NC(=O)NCc3cccnc3)cc2)c1 [3-[4-({3-[(1S)-1-hydroxyethyl]phenyl}sulfamoyl)phenyl]-1-(pyridin-3-ylmethyl)urea] | 7 nM | 164 nM |  |
| CN(C)c1ccc(CNS(=O)(=O)c2ccc(NC(=O)NCc3cccnc3)cc2)cc1 [3-[4-({[4-(dimethylamino)phenyl]methyl}sulfamoyl)phenyl]-1-(pyridin-3-ylmethyl)urea] | 3 nM | 148 nM |  |
| NC(=O)c1cccc(S(=O)(=O)c2ccc(NC(=O)NCc3cccnc3)cc2)c1 [3-[(4-{[(pyridin-3-ylmethyl)carbamoyl]amino[benzene)sulfonyl]benzamide] | 8 nM | 1000 to 10000 nM |  |
| CCN(CC)C(=O)c1cc(Cl)cc(S(=O)(=O)c2ccc(NC(=O)NCc3cccnc3)cc2)c1 [3-chloro-N,N-diethyl-5-[(4-{[(pyridin-3-ylmethyl)carbamoyl]amino}benzene)sulfonyl]benzamide] | 3.5 nM | 1.7 nM |  |
| CN(C)C(=O)c1cc(F)cc(S(=O)(=O)c2ccc(NC(=O)NCc3cccnc3)cc2)c1 [3-fluoro-N,N-dimethyl-5-[(4-{[(pyridin-3-ylmethyl)carbamoyl]amino}benzene)sulfonyl]benzamide] | 1.5 nM | 13.3 nM |  |
| CN(C)c1ncc(S(=O)(=O)c2ccc(NC(=O)NCc3cccnc3)cc2)cn1 [3-{4-[2-(dimethylamino)pyrimidine-5-sulfonyl]phenyl}-1-(pyridin-3-ylmethyl)urea] | 5.9 nM | 100 to 1000 nM |  |
